Paper PMC9518245 (Journal of Enzyme Inhibition and Medicinal Chemistry, 2022)
Read-outs that look alike come from different tables or passages of the source.

Key:
Human recombinant sEH = molecular target: T1, Human recombinant sEH (Homo sapiens, UniProt P34913); test: sEH activity assay (PHOME fluorescence, cell-free); type: biochemical
T1 construct: made in house
T1 sequence (P34913 1-555): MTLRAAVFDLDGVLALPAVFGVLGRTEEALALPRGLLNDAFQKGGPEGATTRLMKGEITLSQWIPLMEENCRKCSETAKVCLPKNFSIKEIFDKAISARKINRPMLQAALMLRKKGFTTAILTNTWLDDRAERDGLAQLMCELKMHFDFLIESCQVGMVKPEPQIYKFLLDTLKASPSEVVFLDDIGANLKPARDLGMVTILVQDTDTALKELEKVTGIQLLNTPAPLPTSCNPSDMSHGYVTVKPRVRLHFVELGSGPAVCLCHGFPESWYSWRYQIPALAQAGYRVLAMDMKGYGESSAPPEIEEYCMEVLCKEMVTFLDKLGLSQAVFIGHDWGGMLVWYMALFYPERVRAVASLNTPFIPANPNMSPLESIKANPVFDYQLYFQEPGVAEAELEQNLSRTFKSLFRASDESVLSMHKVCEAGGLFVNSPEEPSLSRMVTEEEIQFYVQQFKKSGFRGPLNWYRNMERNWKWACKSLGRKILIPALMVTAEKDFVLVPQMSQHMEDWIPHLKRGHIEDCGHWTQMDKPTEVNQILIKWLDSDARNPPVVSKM
Experimental: Human recombinant sEH was expressed and purified as published.[23] Isolated sEH was diluted in 25 mM Tris buffer (pH 7) containing 0.1 mg/mL BSA to a final protein concentration of 0.5 µg/mL. Preincubation with test compounds or 0.1% vehicle (DMSO) at room temperature for 10 min was followed by stimulation with 50 µM PHOME at RT for 60 min. Reactions were stopped with 200 mM ZnSO4 and fluorescence was subsequently detected at λem 465 nm and λex 330 nm. If required, possible fluorescence of the compounds was subtracted from the read-out.

[1] = molecular target: T2, FLAP (5-LOX product formation) (Homo sapiens, UniProt P20292); test: FLAP-dependent 5-LOX product formation in human neutrophils; type: cell-based; details: for IC50: human neutrophils, A23187 stimulated, read-out: FLAP (5-LOX product formation) IC50 ± SEM
T2 construct: Human neutrophils were isolated from buffy coats of healthy adult fasted donors; endogenous in cells; host or cells: primary human neutrophils from buffy coats
T2 sequence (P20292 1-161): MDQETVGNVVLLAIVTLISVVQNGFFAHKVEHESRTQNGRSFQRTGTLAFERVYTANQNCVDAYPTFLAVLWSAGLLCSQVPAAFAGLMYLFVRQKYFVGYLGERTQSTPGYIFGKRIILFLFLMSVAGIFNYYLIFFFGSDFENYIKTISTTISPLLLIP
Experimental: Human neutrophils were isolated from buffy coats of healthy adult fasted donors as described recently.[32] […] 200 ng of internal PGB1 standard was added to the acidified samples and solid-phase-extraction using C18 RP-columns (100 mg, UCT, Bristol, PA, USA) was performed. Samples were eluted with methanol and 5-LOX products including 5-HpETE, and the corresponding alcohol 5-HETE, LTB4, and all-trans-isomers of LTB4 were analysed by RP-HPLC with a C-18 Radial-PAK column (Waters, Eschborn, Germany) as described.[33]

LT biosynthesis = details: cited from earlier work
[2] = set-up: method as in PMID 28218273, PMID 26882208, PMID 28839250; details: cited from earlier work
[3] = lead compound, stated without reference; cited from earlier work
[4] = molecular target: T2, FLAP (5-LOX product formation); details: neutrophils; cited from earlier work
[5] = read-out: sEH IC50 ± SEM, human recombinant sEH, cell-free

| SMILES | melting point [°C] | IC50 (Human recombinant sEH) [nM] | IC50 [1] [nM] | also measured |
| --- | --- | --- | --- | --- |
| CC(C)(C)OC(=O)n1c(COc2ccc(NC(=S)Nc3ccc(Cl)c(Cl)c3)cc2)nc2ccccc21 [Compound 5e, tert-butyl 2-((4-(3-(3,4-dichlorophenyl)thioureido)phenoxy)methyl)-1H-benzo[d]imidazole-1-carboxylate] | 165 to 167 | 19.1 ± 7.2 | > 10000 | – |
| S=C(Nc1ccc(OCc2nc3ccccc3[nH]2)cc1)Nc1ccc(Cl)c(Cl)c1 [Compound 6e, 1-(4-((1H-benzo[d]imidazol-2-yl)methoxy)phenyl)-3-(3,4-dichlorophenyl)thiourea] | 160 to 162 | 271 ± 58.4 | 500 ± 100 | – |
| Cc1cc(OCc2nc3ccccc3[nH]2)ccc1NC(=S)Nc1ccc(Cl)c(Cl)c1 [Compound 6d, 1-(4-((1H-benzo[d]imidazol-2-yl)methoxy)-2-methylphenyl)-3-(3,4-dichlorophenyl)thiourea] | 122 to 124 | 223 ± 85.8 | 600 ± 100 | – |
| Cc1cc(OCc2nc3ccccc3n2C(=O)OC(C)(C)C)ccc1NC(=S)Nc1ccc(Cl)c(Cl)c1 [Compound 5d, tert-butyl 2-((4-(3-(3,4-dichlorophenyl)thioureido)-3-methylphenoxy)methyl)-1H-benzo[d]imidazole-1-carboxylate] | 172 | – | > 10000 | sEH activity (in words) (Human recombinant sEH): inactive; IC50 (Human recombinant sEH; [5]): > 10000 nM; FLAP activity (in words) [1]: Inactive |
| Cc1cc(OCc2nc3ccccc3s2)ccc1NC(=O)Nc1ccc(Cl)c(Cl)c1 [Diflapolin] | – | – | – | LT biosynthesis in vivo (LT biosynthesis): efficiently inhibits LT biosynthesis in vivo; anti-inflammatory activity in mouse (LT biosynthesis; mouse): strong anti-inflammatory activity; acute cytotoxicity [2]: no acute cytotoxicity; solubility [3]: poor solubility |
| Cc1cc(OCc2nc3ccccc3[nH]2)ccc1NC(=O)Nc1ccc(Cl)c(Cl)c1 [Compound 6a, 1-(4-((1H-benzo[d]imidazol-2-yl)methoxy)-2-methylphenyl)-3-(3,4-dichlorophenyl)urea] | 245 to 246 | – | 700 ± 100 | IC50 (Human recombinant sEH; [5]): 56.9 ± 19.4 nM |
| Cc1cc(NC(=O)Nc2ccc(Cl)c(Cl)c2)ccc1OCc1nc2ccccc2n1C(=O)OC(C)(C)C [Compound 5c, tert-butyl-2-((4-(3-(3,4-dichlorophenyl)ureido)-2-methylphenoxy)methyl)-1H-benzo[d]imidazole-1-carboxylate] | 145 to 146 | 0.7 ± 0.1 | > 10000 | – |
| Cc1cc(NC(=S)Nc2ccc(Cl)c(Cl)c2)ccc1OCc1nc2ccccc2n1C(=O)OC(C)(C)C [Compound 5f, tert-butyl 2-((4–(3-(3,4-dichlorophenyl)thioureido)-2-methylphenoxy)methyl)-1H-benzo[d]imidazole-1-carboxylate] | 169 to 172 | 17.5 ± 12.7 | > 10000 | – |
| O=C(Nc1ccc(OCc2nc3ccccc3[nH]2)cc1)Nc1ccc(Cl)c(Cl)c1 [Compound 6b, 1-(4-((1H-benzo[d]imidazol-2-yl)methoxy)phenyl)-3-(3,4-dichlorophenyl)urea] | 272 | 10.5 ± 1.9 | 600 ± 100 | – |
| CC(C)c1ccc2c(c1)c(SC(C)(C)C)c(CC(C)(C)C(=O)O)n2Cc1ccc(Cl)cc1 [MK-886] | – | – | – | IC50 [4]: 10 to 14 nM |
| Cc1cc(NC(=O)Nc2ccc(Cl)c(Cl)c2)ccc1OCc1nc2ccccc2[nH]1 [Compound 6c, 1-(4-((1H-benzo[d]imidazol-2-yl)methoxy)-3-methylphenyl)-3-(3,4-dichlorophenyl)urea] | 228 to 230 | 4.9 ± 1 | 400 ± 10 | – |
| Cc1cc(OCc2nc3ccccc3n2C(=O)OC(C)(C)C)ccc1NC(=O)Nc1ccc(Cl)c(Cl)c1 [Compound 5a, tert-butyl-2-((4-(3-(3,4-dichlorophenyl)ureido)-3-methylphenoxy)methyl)-1H-benzo[d]imidazole-1-carboxylate] | 261 to 263 | 0.7 ± 0.1 | 3700 ± 900 | – |
| Cc1cc(NC(=S)Nc2ccc(Cl)c(Cl)c2)ccc1OCc1nc2ccccc2[nH]1 [Compound 6f, 1-(4-((1H-benzo[d]imidazol-2-yl)methoxy)-3-methylphenyl)-3-(3,4-dichlorophenyl)thiourea] | 167 to 168 | 772 ± 169 | 750 ± 170 | – |
| CC(C)(C)OC(=O)n1c(COc2ccc(NC(=O)Nc3ccc(Cl)c(Cl)c3)cc2)nc2ccccc21 [Compound 5b, tert-butyl 2-((4-(3-(3,4-dichlorophenyl)ureido)phenoxy)methyl)-1H-benzo[d]imidazole-1-carboxylate] | 262 to 264 | 0.63 ± 0.1 | > 10000 | – |
